Data set [1] is described as follows: elimination of GA metabolites in SD rats intravenously injected with GA. The following applies: female SD rats, GA iv, faeces collected 24 h after injection. Format: in vivo, Sprague-Dawley (SD) rats. From the text: (§1) Briefly, after diluting serum and urine samples with water to obtain suitable concentrations, they were digested with subtilisin (0.91 U/ml), followed by the addition of astragaloside IV (used as an internal standard; Fujifilm Wako Pure Chemicals, Osaka, Japan), and deproteinized using 80% ethanol. […] The transitions (precursor to daughter) monitored and retention times were as follows: ESI(+), 743.4 to 567.5 m/z (35 and 25 V for cone voltage and collision energy, respectively) for compound 1 (8.1 min); ESI(–), 565.5 to 96.5 m/z (80 and 60 V) for 2 (9.6 min); ESI(–), 549.5 to 96.5 m/z (80 and 60 V) for 3 (15.4 min); ESI(+), 727.3 to 551.2 m/z (30 and 25 V) for 4 (11.3 min); ESI(+), 647.6 to 453.6 m/z (40 and 20 V) for 3MGA (15.0 min); ESI(+), 471.3 to 91.0 m/z (40 and 20 V) for GA (13.4 min); ESI(+), 823.5 to 453.6 m/z (30 and 20 V) for GL (18.4 min); and ESI(+), 785.4 to 143.0 m/z (30 and 20 V) for astragaloside IV (3.0 min). Linear regressions over the concentration range of 2 nM to 2 µM for each compound were examined using the peak-area ratio of the compounds to their internal standards and the least-squares method (r ^ 2 > 0.98). The detection limits for 1, GL, and GA were 6.4 nM, and those for 2, 3, and 4, and 3MGA were 3.2 nM.
FIGURE 6 Elimination of glycyrrhizin (GL) metabolites into bile in Sprague-Dawley (SD) rats. Female SD rats (10 week-old) were anesthetized using intraperitoneal injection of urethane (1 g/kg), and biliary tracts were cannulated. […] Concentrations of GA metabolites were measured using liquid chromatography-tandem mass spectrometry (LC-MS/MS) and accumulated elimination of GA-metabolites are means ± standard error (S.E: n = 3).

A short description of data set [2]: pharmacokinetics of GA metabolites in EHBRs orally treated with GA. Format: in vivo, Eisai hyperbilirubinuria rats (EHBRs). To be noted: for concentration at 12 h: Eisai hyperbilirubinuria rat (EHBR), rat, plasma, 200 mg/kg, GA 0.20 g/kg oral, read-out: plasma concentration 12 h after oral administration of GA. On the procedure: Pharmacokinetic Experiments of GA Metabolites in EHBRs Orally Treated With GA
Male and female EHBRs (9 week-old) were anaesthetized by an intraperitoneal injection of urethane (1 g/kg) and their jugular veins were exposed. GA suspended in 0.5% carboxymethylcellulose was then administered orally (200 mg/kg) to the unconscious rats, and blood samples were collected from the jugular vein while urine samples were collected using a metabolic cage at appropriate times over a 12 h period.
LC-MS/MS Analysis for GA Metabolites
as §1
FIGURE 5 Pharmacokinetic profiles of glycyrrhizin (GL) metabolites in female (A–C) and male (D–F) Eisai hyperbilirubinuria rats (EHBRs). […] Data of GA, 3MGA, 1, 2, and 3 in (A) and GA, 3MGA, 2, and 3 for (D) are relatively small; their magnified graphs are shown in (B,E), respectively. Concentrations of GA metabolites were measured using liquid chromatography-tandem mass spectrometry (LC-MS/MS), and data are means ± standard error (S.E: n = 4).

Data set [3] relates to mineralocorticoid receptor (MR). More on the design: method as in earlier work. To be noted: ref Ulmann et al., 1975; Armanini et al., 1983; Monder et al., 1989; cited from earlier work.
The subject of another data set is anti-3MGA-mAb. Put plainly: competitive ELISA using anti-3MGA-mAb. Format: binding. To be noted: competitive ELISA in aqueous solution, 3MGA calibrated to 100%. On the procedure:
ELISA System Using anti-3MGA-mAb
An ELISA system to measure the cross-reactivity of compounds 3 and 4 by using 3MGA-HSA-conjugate and anti-3MGA-mAb was used according to the protocol in our previous study ([Ishiuchi et al., 2019]). To measure the concentration of 3 in human serum samples using the system ELISA, 3 was dissolved in normal human serum (Sigma) to prepare standard solutions (16 nM–2.0 µM) and the samples or standard solutions (each 10 µl) and ethanol (40 µl) were well mixed and centrifuged (1.2 × 10^4 × g for 7 min). The supernatant was dried up under nitrogen flow at 40°C overnight, and the residue was dissolved in Can Get Signal® Solution 1 (Toyobo Co., Ltd: Osaka, Japan) (50 µl). […] When the observed values were more than 400 nM, the deproteinized serum samples were further diluted with Can Get Signal® Solution 1 for two or four times and analyzed again to observe values from 15.6 to 400 nM.
FIGURE 4 Development of enzyme-linked immunosorbent assay (ELISA) system to measure concentrations of 3 in human serum samples using anti-18β-glycyrrhetyl-3-O-glucuronide (3MGA)-monoclonal antibody (mAb). […] Standard lines between absorbance and concentrations of compound 3 are shown (D) Accuracy of ELISA system in measuring concentrations of 3 in human serum samples using anti-3MGA-mAb. Human serum samples were deproteinized, and concentration of 3 was measured using ELISA system. […]

Details of data set [4]: method as in Takahashi et al., 2019. To be noted: ref Takahashi et al., 2019, cited from earlier work.

Molecules are shown by their SMILES. Where two headings read alike, the source gives them in different places.

Turning to `CC1(C)[C@@H](O[C@H]2O[C@H](C(=O)O)[C@@H](O)[C@H](O)[C@H]2O[C@@H]2O[C@H](C(=O)O)[C@@H](O)[C@H](O)[C@H]2O)CC[C@]2(C)[C@H]3C(=O)C=C4[C@@H]5C[C@@](C)(C(=O)O)CC[C@]5(C)CC[C@@]4(C)[C@]3(C)CC[C@@H]12` [GL, glycyrrhizin], in data set [1], the “accumulative elimination in faeces” value is reported as “below detectable levels”.
In the case of `CC1(C)[C@@H](O[C@@H]2O[C@H](C(=O)O)[C@@H](O)[C@H](O)[C@H]2O)CC[C@]2(C)[C@H]3C(=O)C=C4[C@@H]5C[C@@](C)(C(=O)O)CC[C@]5(C)CC[C@@]4(C)[C@]3(C)CC[C@@H]12` [Compound 3MGA, 18β-glycyrrhetyl-3-O-glucuronide, reference compound], the results for the concentration at 12 h in data set [2] (female EHBRs) and in data set [2] (male EHBRs) were 100 nM and 1600 nM, respectively. The “accumulative elimination in faeces” value in data set [1] is “below detectable levels”.
As for `CC1(C)[C@@H](O)CC[C@]2(C)[C@H]3C(=O)C=C4[C@@H]5C[C@@](C)(C(=O)O)CC[C@]5(C)CC[C@@]4(C)[C@]3(C)CC[C@@H]12` [GA, glycyrrhetinic acid, reference compound], the concentration at 12 h in data set [2] (female EHBRs) is 2700 nM; in data set [2] (male EHBRs) it was 2600 nM. In addition, in data set [1], the “accumulative elimination in faeces” value was 9.8 ± 1.3 nmol. Moreover, the “binding activity (ED50) on mineralocorticoid receptor” value in data set [3] is on record as “about 100 µM”.
In the case of `CC1(C)[C@@H](OS(=O)(=O)O)CC[C@]2(C)[C@H]3C(=O)C=C4[C@@H]5C[C@@](C)(C(=O)O[C@@H]6O[C@H](C(=O)O)[C@@H](O)[C@H](O)[C@H]6O)C[C@H](O)[C@]5(C)CC[C@@]4(C)[C@]3(C)CC[C@@H]12` [Compound 1, 22α-hydroxy-18β-glycyrrhetyl-3-O-sulfate-30-glucuronide], the “blood concentration in male rats relative to female rats” value in data set [2] (EHBRs, 12 h after oral GA) was “approximately 7 fold”. Besides, the concentration at 12 h turned out to be 32000 nM in data set [2] (female EHBRs) and 177000 nM in data set [2] (male EHBRs). Also, the “accumulative elimination in faeces” value in data set [1] is on record as “below detectable levels”.
With `CC1(C)[C@@H](OS(=O)(=O)O)CC[C@]2(C)[C@H]3C(=O)C=C4[C@@H]5C[C@@](C)(C(=O)O)C[C@H](O)[C@]5(C)CC[C@@]4(C)[C@]3(C)CC[C@@H]12` [Compound 2, 22α-hydroxy-18β-glycyrrhetyl-3-O-sulfate], the results for the concentration at 12 h in data set [2] (female EHBRs) and in data set [2] (male EHBRs) were 10000 nM and 8200 nM, respectively. The “accumulative elimination in faeces” value in data set [1] came out at 0.86 ± 0.1 nmol.
With `CC1(C)[C@@H](OS(=O)(=O)O)CC[C@]2(C)[C@H]3C(=O)C=C4[C@@H]5C[C@@](C)(C(=O)O)CC[C@]5(C)CC[C@@]4(C)[C@]3(C)CC[C@@H]12` [Compound 3, 18β-glycyrrhetyl-3-O-sulfate], the results for the concentration at 12 h in data set [2] (female EHBRs) and in data set [2] (male EHBRs) were 2000 nM and 2200 nM, respectively. For the same compound, the “accumulative elimination in faeces” value in data set [1] is reported as 1.8 ± 0.3 nmol. The “cross-reactivity to anti-3MGA-mAb” value in the data set with anti-3MGA-mAb was determined as 23%. The “serum concentration of 3 relative to that of GA (fold higher)” value in data set [4] (human serum) is listed as 1.5–2 fold. Moreover, the maximum serum concentration in data set [4] (previous clinical study) was 4.2 µM.

Values taken from article PMC8165744, “Identification of an Alternative Glycyrrhizin Metabolite Causing Liquorice-Induced Pseudohyperaldosteronism and the Development of ELISA System to Detect the Predictive Biomarker” (Frontiers in Pharmacology, 2021).
